{"source": "paper PMC11340618", "about": "(iScience, 2024)", "test_system": "intracellular Mtb ΔptpA mutant in THP-1 cells", "format": "cell-based, Mycobacterium tuberculosis", "data": [{"molecule": "O=C(NCc1ccccn1)Nc1cc(N2CC(CCc3ccccc3)CC2=O)ccn1", "note": "(stereo not shown) [P-4423632]", "values": [{"measurement": "dose-dependent activity against intracellular Mtb", "value": "not against a ΔptpA mutant"}]}]}
